According to patent US20030114512A1, “Compounds with 5-ht2 and 5-ht1a agonist activity for treating glaucoma” (priority 2002, published 2003):
Where two headings read alike, the source gives them in different places.

What was measured:
5-HT2 receptor = target: T1, 5-HT2 receptor (Rattus norvegicus, UniProt P14842); test: 5-HT2 functional assay: phosphoinositide (PI) turnover; format: cell-based; settings: for Emax: A7r5 cells, relative to 5-HT set at 100%, read-out: Efficacy (Emax, %) 5-HT2 functional
T1 construct: A7r5 rat vascular smooth muscle cells; endogenous in cells; host or cells: A7r5 rat vascular smooth muscle cells
Procedure: 5-HT2 Functional Assay: Phosphoinositide (PI) Turnover Assay
The relative agonist activity of serotonergic compounds at the 5-HT2 receptor can be determined in vitro using the ability of the compounds to stimulate the production of [^3H]inositol phosphates in [^3H]myo-inositol-labeled A7r5 rat vascular smooth muscle cells by their ability to activate the enzyme phospholipase C. These cells are grown in culture plates, maintained in a humidified atmosphere of 5% CO2 and 95% air and fed semi-weekly with Dulbecco's modified Eagle medium (DMEM) containing 4.5 g/l glucose and supplemented with 2 mM glutamine, 10 μg/ml gentamicin, and 10% fetal bovine serum. For the purpose of conducting the phosphoinositide (PI) turnover experiments, the A7r5 cells are cultured in 24-well plates as previously [J. Pharmacol. Expt. Ther., 286, 411 (1998)]. Confluent cells are exposed for 24-30 hrs to 1.5 μCi [^3H]-myo-inositol (18.3 Ci/mmol) in 0.5 ml of serum-free medium. Cells are then rinsed once with DMEM/F-12 containing 10 mM LiCl prior to incubation with the test agent (or solvent as the control) in 1.0 ml of the same medium for 1 hr at 37° C., after which the medium is aspirated and 1 ml of cold 0.1 M formic acid added to stop the reaction. The chromatographic separation of [^3H]-inositol phosphates ([^3H]-IPs) on an AG-1-X8 column is performed as previously described [J. Pharmacol. Expt. Ther. 286, 411 (1998)] with sequential washes with H2O and 50 mM ammonium formate, followed by elution of the total [^3H]-IPs fraction with 1.2 M ammonium formate containing 0.1 M formic acid. The eluate (4 ml) is collected, mixed with 15 ml scintillation fluid, and the total [^3H]-IPs determined by scintillation counting on a beta counter. Concentration-response data are analyzed by the sigmoidal fit function of the Origin Scientific Graphics software (Microcal Software, Northampton, Mass.) to determine agonist potency (EC50 value) and efficacy (Emax). Serotonin (5-HT) is used as a positive control (standard) agonist compound and the efficacy of test compounds is compared to that of 5-HT (set at 100%). The concentration of the compound needed to stimulate the production of [^3H]-IPs by 50% of the maximum response is termed the EC50 value.

5-HT1A receptor = target: T2, 5-HT1A receptor (UniProt P08908); test: 5-HT1A functional assays (inhibition of forskolin-stimulated adenylate cyclase / cAMP); format: biochemical; settings: for EC50: read-out: EC50, nM (SEM) 5-HT1A functional
T2 sequence (P08908 1-422): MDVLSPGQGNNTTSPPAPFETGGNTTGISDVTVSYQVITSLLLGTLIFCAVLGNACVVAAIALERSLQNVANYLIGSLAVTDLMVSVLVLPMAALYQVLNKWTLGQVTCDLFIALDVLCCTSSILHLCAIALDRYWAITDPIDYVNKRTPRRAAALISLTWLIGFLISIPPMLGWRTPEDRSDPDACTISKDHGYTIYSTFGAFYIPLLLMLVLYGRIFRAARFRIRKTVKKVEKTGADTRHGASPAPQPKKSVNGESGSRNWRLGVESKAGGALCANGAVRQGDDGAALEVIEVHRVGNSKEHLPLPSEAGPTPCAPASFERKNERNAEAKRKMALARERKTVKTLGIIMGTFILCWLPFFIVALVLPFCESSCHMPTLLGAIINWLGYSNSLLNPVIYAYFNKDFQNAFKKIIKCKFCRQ
Procedure: The function of Compounds of the present invention can be determined using a variety of methods to assess the functional activity of 5-HT1A agonists. One such assay is performed using hippocampal slices from male Sprague-Dawley rats, measuring the inhibition of forskolin-stimated adenylate cyclase [J. Med. Chem. 42. 36 (1999), J. Neurochem. 56, 1114 (1991), J. Pharm. Exper. Ther. 284:1082 (1998). Rat hippocampal membranes were homogenized in 25 volumes of 0.3 M sucrose containing 1 mM EGTA, 5 mM EDTA, 5 mM dithiothreitol, and 20 mM Tris-HCl, pH 7.4 at 25° C. The homogenate was centrifuged for 10 m in at 1,000×g. The supernatant subsequently was centrifuged at 39,000×g for 10 min. The resulting pellet was re-suspended in homogenization buffer at a protein concentration of approximately 1 mg/ml and aliquots were stored at −140° C. Prior to use, the membranes were rehomogenized in a Potter-Elvehjem homogenizer. Fifty μl of the membrane suspension (50 μg protein) were added to an incubation buffer containing 100 mM NaCl, 2 mM magnesium acetate, 0.2 mM ATP, 1 mM cAMP, 0.01 mM GTP, 0.01 mM forskolin, 80 mM Tris-HCl, 5 mM creatine phosphate, 0.8 U/μl creatine phosphokinase, 0.1 mM IBMX, 1-2 μCi α-[^32P]ATP. Incubations with test compounds (10 min at 30° C.) were initiated by the addition of the membrane solution to the incubation mixture (prewarmed 5 min at 30° C.). [^32P]cAMP was measured according to the method of Salomon (Adv. Cyclic Nucleotide Res. 10:35-55, 1979). Protein was measure using the Bradford (Anal. Biochem 72:248-254, 1976) assay.
Functional activity can also be determined in recombinant human receptors according to the method of Schoeffter et al., (Neuropharm. 36:429-437, 1997). HeLa cells transfected with recombinant human 5-HT1A receptors were grown to confluence in 24-well plates. The cells were rinsed with 1 ml of Hepes-buffered saline (in mM) NaCl 130, KCl 5.4, CaCl2, 1.8, MgSO4 0.8, NaH2PO4 0.9, glucose 25, Hepes 20, pH 7.4, and phenol red 5 mg/l. The cells were labelled with 6 μCi/ml of [^3H] adenine (23 Ci/mmol, Amersham, Rahn AG, Zurich, Switzerland) in 0.5 ml of saline at 37° C. for 2 hr. The plates were subsequently rinsed twice with 1 ml of buffered saline containing 1 mM isobutylmethylxanthine. The cells were incubated for 15 min in 1 ml of this solution (37° C.) in the presence or absence of 10 μM forskolin and the test compound. The buffer was then removed and 1 ml of 5% trichloroacetic acid (TCA) containing 0.1 mM cAMP and 0.1 mM ATP was added to extract the samples. After 30 min at 4° C., the TCA extracts were subjected to chromatographic separation on Dowex AG 50W-X4 and alumina columns (Salomon, Methods in Enzymology 195: 22-28, 1991). Cyclic AMP production was calculated as the ratio [^3H]cAMP/([^3H]cAMP+[^3H]ATP).

T1 sequence (P14842 whole entry): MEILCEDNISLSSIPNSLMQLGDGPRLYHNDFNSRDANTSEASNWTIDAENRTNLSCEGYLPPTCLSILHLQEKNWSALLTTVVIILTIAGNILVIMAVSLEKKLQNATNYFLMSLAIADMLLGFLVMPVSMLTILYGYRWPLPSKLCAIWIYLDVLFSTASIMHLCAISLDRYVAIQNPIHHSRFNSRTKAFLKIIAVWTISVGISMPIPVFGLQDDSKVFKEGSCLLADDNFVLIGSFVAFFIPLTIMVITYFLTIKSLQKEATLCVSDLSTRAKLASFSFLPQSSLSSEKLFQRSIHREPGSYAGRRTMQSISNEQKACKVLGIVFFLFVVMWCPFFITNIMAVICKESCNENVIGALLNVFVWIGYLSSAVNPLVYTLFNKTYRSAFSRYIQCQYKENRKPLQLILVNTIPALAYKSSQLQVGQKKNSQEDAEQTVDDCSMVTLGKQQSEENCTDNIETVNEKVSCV

| SMILES | Emax (5-HT2 receptor) | EC50 (5-HT2 receptor; [3H]inositol phosphates, A7r5 rat vascular smooth muscle cells, read-out: EC50, nM (SEM) 5-HT2 functional) | Efficacy (Emax, %) 5-HT1A functional (5-HT1A receptor) | EC50 (5-HT1A receptor) | EC50 (5-HT2 receptor) |
| --- | --- | --- | --- | --- | --- |
| CC(N)Cn1ccc2ccc(O)cc21.O=C(O)/C=C/C(=O)O (centres unmarked) [1-(2-aminopropyl) 6-hydroxyindole fumarate] | 86% | 577 nM | 89% | 780 nM |  |
| CC(N)Cc1c[nH]c2ccc(O)cc12.O=C(O)/C=C\C(=O)O (stereo not drawn) [α-Methyl 5-hydroxytryptamine maleate, 3-(2-aminopropyl)-1H-indol-5-ol] | 104% |  | 100% | 378 nM |  |
| COc1ccc2[nH]cc(CC(C)N)c2c1.O=C(O)/C=C/C(=O)O (stereo not drawn) [α-Methyl 5-methoxytryptamine fumarate] | 81% |  | 92% | 570 nM | 206 nM |
